Reference: ChEMBL document CHEMBL3507680, “University of Dundee, Gates Library screen for HepG2 cell viability”

assay: Human HepG2 cell viability assay in 384 well format; type: toxicity, cell-based; set-up: dose 125 nL, time 70.5 hour; cytotoxicity at 70.5 h: concentration not given beside the values; settings: HepG2 cells, read-out: Inhibition

Point of comparison: O=C(NCCS(=O)(=O)N1CCN(c2ncccn2)CC1)c1ccccc1, cytotoxicity at 70.5 h -7.9%. Against it:
- CCOc1nn(CC)cc1-c1nnc(SCc2cccnc2)n1CC — higher, -7.15%
- Cc1cc(CN2CCC(CNS(=O)(=O)c3c(C)noc3C)CC2)c(C)o1 — higher, 2.34%
- Cc1cc(CN2CCC(CNS(=O)(=O)c3ccc(Br)s3)CC2)c(C)o1 — higher, -7.28%
- CCOc1ccc(S(=O)(=O)NCCc2ccc(N(C)C)cc2)cc1F — higher, -1.54%
- O=C(CCc1ccccc1)NCC1CCN(Cc2cccs2)CC1 — lower, -8.06%
- COCC(=O)NCC1CCN(Cc2ccsc2)CC1 — higher, 33.7%
- O=C(COc1ccccc1)NCC1CCN(Cc2ccsc2)CC1 — higher, -4.27%
- O=C(CCSc1ccccc1)NCC1CCN(Cc2ccsc2)CC1 — higher, 4.4%
- CCCc1nnsc1C(=O)NCC1CCN(c2ncccn2)CC1 — lower, -13.9%
- O=C(NCCS(=O)(=O)N1CCN(c2ncccn2)CC1)C1CCCC1 — higher, -5.6%
- CCCS(=O)(=O)N1CCN(c2ccc3nnc(CC)n3n2)CC1 — lower, -12.7%
- COc1ccc(C(=O)NCC(c2cccn2C)N2CCCC2)cc1OC (stereo not drawn) — higher, -4.98%
- COc1ccccc1C(=O)NCC(c1cccn1C)N1CCOCC1 (stereo not drawn) — higher, -6.22%
- Cc1ccc(C)c(C(=O)NCC(c2cccn2C)N2CCCCCC2)c1 (stereo not drawn) — higher, -1.53%
- CC(=O)Nc1cc(C2CC2)nn1-c1nc(C)c(C)c(=O)[nH]1 — higher, 38.4%
- CCc1c(C)nc(-n2nc(C3CC3)cc2NC(C)=O)[nH]c1=O — higher, 1.53%
- Cn1nc2c(c1NC(=O)c1ccc(Cl)s1)CCC2 — lower, -8.38%
- Cc1cc(=O)[nH]c(-n2nc(C)c(CCC(=O)NCc3ccco3)c2C)n1 — higher, 31.1%
- Cc1cc(=O)[nH]c(-n2nc(C)c(CCC(=O)Nc3nc(C)cs3)c2C)n1 — higher, -3.34%
- Cc1cc(=O)[nH]c(-n2nc(C)c(CCC(=O)NCC(C)C)c2C)n1 — higher, -4.48%
- Cc1nnc(NC(=O)c2c3c(nn2C2CCS(=O)(=O)C2)CCC3)s1 (stereo not drawn) — higher, -4.4%
- CCc1nnc(NC(=O)c2c3c(nn2C2CCS(=O)(=O)C2)CCC3)s1 (stereo not drawn) — higher, -6.09%
- O=S(=O)(NCC1(c2cccs2)CCOCC1)c1ccc2c(c1)OCCO2 — higher, 12%
- COc1cccc(NC(=O)Nc2ccc3c(c2)CC(=O)N3)c1 — lower, -16.9%
- O=S(=O)(c1cccnc1)N1CCN(Cc2nc(-c3cccs3)cs2)CC1 — lower, -14.7%
- CN(C)S(=O)(=O)NCCn1nc(-c2ccccc2)n(C)c1=O — higher, -4.25%
- COCCc1nnc(NC(=O)CCCc2ccccc2)o1 — higher, -6.03%
- Cc1noc(C)c1CCC(=O)NCCc1cccs1 — higher, -7.09%
- Cc1nccn1CC1CCN(C(=O)c2cccs2)CC1 — lower, -17.8%
- CN(C)S(=O)(=O)N1CCC(Cn2cccn2)CC1 — higher, -7.21%
- CCOc1ccc(S(=O)(=O)N(CCOC)Cc2ccncc2)cc1F — higher, 35.3%
- O=C(NCC(O)(c1ccco1)C1CC1)c1c(F)cccc1Cl (stereo not drawn) — higher, -0.808%
- Cn1cccc1C(O)CNC(=O)c1ccc(F)c(F)c1 (stereo not drawn) — lower, -13.5%
- Cn1cccc1C(O)CNC(=O)c1ccc(C(F)(F)F)cc1 (stereo not drawn) — lower, -20.6%
- Cn1cccc1C(O)CNS(=O)(=O)Cc1ccccc1 (stereo not drawn) — higher, 12.5%
- Cn1cccc1C(O)CNS(=O)(=O)c1ccccc1F (stereo not drawn) — higher, 3.03%
- Cc1cc(F)ccc1S(=O)(=O)NCC(O)c1cccn1C (stereo not drawn) — higher, 0.803%
- Cn1cccc1C(O)CNS(=O)(=O)c1ccccc1Br (stereo not drawn) — higher, -0.453%
- COc1ccc(CC(=O)NCC(O)c2sccc2C)cc1OC (stereo not drawn) — higher, -6.12%
- Cc1ccsc1C(O)CNS(=O)(=O)Cc1ccc(F)cc1 (stereo not drawn) — lower, -10.1%
- COc1ccc(F)cc1S(=O)(=O)NCC(O)c1sccc1C (stereo not drawn) — higher, -2.63%
- COc1ccc(S(=O)(=O)NCC(O)c2sccc2C)cc1Cl (stereo not drawn) — higher, 0.182%
- O=C(NCc1cccs1)NCC(O)(c1cccs1)C1CC1 (stereo not drawn) — lower, -12.2%
- O=C(NCc1ccc(F)cc1)NCC(O)(c1cccs1)C1CC1 (stereo not drawn) — lower, -8.72%
- COc1ccc(CNC(=O)NCC(O)(c2cccs2)C2CC2)cc1 (stereo not drawn) — higher, -6.74%
- COc1ccc(CCNC(C)c2ccc3[nH]c(=O)[nH]c3c2)cc1OC (stereo not drawn) — higher, 3.32%
- Cc1ncc(CN2CCCC(c3cc(C(N)=O)[nH]n3)C2)s1 (stereo not drawn) — higher, 57.9%
- c1cnnc(N2CCCC(NCc3nc(-c4ccco4)no3)C2)c1 (stereo not drawn) — higher, 46.2%
- CSc1ccc(C(=O)N2CCOCC2c2c(C)n[nH]c2C)o1 (stereo not drawn) — higher, 18.3%
- Cc1n[nH]c(C)c1C1COCCN1C(=O)c1n[nH]c2ccccc12 (stereo not drawn) — higher, 12.3%
- Cc1ccoc1-c1nnc(CNC2CCCN(c3cccnn3)C2)o1 (stereo not drawn) — higher, 12.6%
- CC(C)c1nnc2n1CCN(Cc1nc(-c3ccoc3)no1)C2 — higher, 16.7%
- Cc1ncsc1C(=O)N(C)Cc1cccnc1 — lower, -9.5%
- Cc1ccccc1C1(C(=O)NCCN2CCOCC2)CCOCC1 — lower, -9.98%
- Cc1cc(CNc2cccc(Cl)c2C)no1 — lower, -17.1%
- CCOc1ncccc1CNC(=O)c1cccc(C)n1 — lower, -17.3%
- Cc1n[nH]c(C)c1C1COCCN1C(=O)c1cc(F)ccc1F (stereo not drawn) — lower, -8.76%
- Cc1n[nH]c(C)c1C1COCCN1C(=O)c1cccc(F)c1F (stereo not drawn) — lower, -15.7%
- CN(C)c1cc(CNC(=O)Nc2ccc(C#N)cc2)ccn1 — lower, -11.3%
- NC(=O)C1CCN(C(=O)NCCOc2ccc3c(c2)CCC3)CC1 — higher, -6.38%
- CC(=O)NCC1CCN(C(=O)NCCOc2ccc3c(c2)CCC3)CC1 — lower, -11.5%
- COc1ccc(Cl)cc1NCc1cc(C)on1 — higher, -3.4%
- COc1ccc(OCCNC(=O)N2CCS(=O)(=O)CC2)cc1 — lower, -7.97%
- c1ccc(-n2cc(CNC3CCc4ncnn4C3)nn2)cc1 (stereo not drawn) — higher, -7.65%
- O=C(O)c1cc(S(=O)(=O)N2CCOc3ccccc32)ccc1Br — higher, -2.35%
- Cc1ccc(NC(=O)C2CSCN2C(=O)c2cnccn2)cc1C (stereo not drawn) — lower, -9.37%
- CSCCc1ccc(NC(=O)NCc2ccnc(N(C)C)c2)cc1 — higher, 16.5%
- Cc1oc(-c2ccco2)nc1CNC1CCCN(c2cccnn2)C1 (stereo not drawn) — lower, -9.89%
- CC(=O)N1CCCN(C(=O)NCCOc2ccc3c(c2)CCC3)CC1 — higher, -4.61%
- Cc1noc(C)c1S(=O)(=O)NC(=O)COc1ccc2c(c1)CCC2 — lower, -13.5%
- CN(C)c1cc(CNc2ccc(S(=O)(=O)C(C)(C)C)nc2)ccn1 — higher, 8.83%
- Cc1cccc(C)c1OCC(=O)NS(=O)(=O)c1c(C)noc1C — lower, -14.4%
- Cc1n[nH]c(C)c1C1COCCN1C(=O)c1ccc2c(c1)CCO2 (stereo not drawn) — lower, -8%
- Cc1nn(C)c(N(C)C)c1CNCCCNS(C)(=O)=O — higher, 4.14%
- COCc1nc(C(=O)NS(=O)(=O)c2cc(Br)ccc2C)cs1 — higher, 1.93%
- O=C(c1cccc(N2CCCC2=O)c1)N1CCCC(n2cccn2)C1 (stereo not drawn) — higher, -6.59%
- O=C(c1cccc(Cn2ccnc2)c1)N1CCCC(n2cccn2)C1 (stereo not drawn) — higher, 5.77%
- CCOc1ccc(C(=O)N2CCN(c3nccn3C)CC2)cc1 — higher, -0.809%
- Cn1ccnc1N1CCN(C(=O)Cc2ccccc2)CC1 — lower, -8.11%
- COc1ccc(CC(=O)N2CCN(c3nccn3C)CC2)cc1 — higher, -1.27%
- Cc1cccc(CC(=O)N2CCN(c3nccn3C)CC2)c1 — higher, -1.55%
- CCOc1ccc(CC(=O)N2CCN(c3nccn3CC)CC2)cc1 — higher, -1.22%
